Key:
[1] = target: T1, CSK (Homo sapiens, UniProt P41240); assay: TMT-based quantitative proteomics in Mino cells, CSK; format: cell-based; conditions: 200 nM, 4 h
T1 construct: host or cells: Mino
Procedure: (§1) Panel a. […] Panel b. […] Panel c. […] Panel d-e. […] Panel g.
(§2) Two million of Mino cells were treated with DMSO or 200 nM of PS-2 for 4 hours in biological triplicates and cells were harvested by centrifugation (200×g, 4° C., 5 min). Lysis buffer (100 mM Triethylammonium bicarbonate (TEAB, Thermo Fisher Scientific, Cat. No. 90114), 2% SDS) was added to the cell pellets and homogenized with a microtip sonicator (Branson) to achieve a cell lysate with a protein concentration of ˜2 mg mL^−1. Protein concentration was determined using BCA assay (Pierce, Cat. No. 23225) and normalized to 1 mg mL^−1. One hundred μg of protein for each sample were reduced and alkylated with 10 mM Tris(2-carboxyethyl) phosphine hydrochloride (TCEP, Sigma, Cat. No. C4706) and 17 mM iodoacetamide (IAA, Sigma, Cat. No. 16125-5G), followed by digestion with trypsin (1:20, enzyme: protein, Thermo Fisher Scientific, Cat. No. 90058) for 16 h shaking at 37° C. […]
(§3) Next, tandem mass tagging (TMT)-based quantitative proteomic profiling was performed to evaluate the degradation specificity of PS-2. […] Quantitative proteomics employing TMT chemical labeling coupled with LC/MS/MS enabled the detection of >2,500 unique proteins without fractionation (FIG. 4f). […]

[2] = target: T2, BTK (Mus musculus, UniProt P35991); assay: Western blotting for BTK in A20 cells; format: cell-based; conditions: A20 cells, 40, 200 and 1000 nM, 24 h, Western blot
T2 construct: host or cells: A20
T2 sequence (P35991 whole entry): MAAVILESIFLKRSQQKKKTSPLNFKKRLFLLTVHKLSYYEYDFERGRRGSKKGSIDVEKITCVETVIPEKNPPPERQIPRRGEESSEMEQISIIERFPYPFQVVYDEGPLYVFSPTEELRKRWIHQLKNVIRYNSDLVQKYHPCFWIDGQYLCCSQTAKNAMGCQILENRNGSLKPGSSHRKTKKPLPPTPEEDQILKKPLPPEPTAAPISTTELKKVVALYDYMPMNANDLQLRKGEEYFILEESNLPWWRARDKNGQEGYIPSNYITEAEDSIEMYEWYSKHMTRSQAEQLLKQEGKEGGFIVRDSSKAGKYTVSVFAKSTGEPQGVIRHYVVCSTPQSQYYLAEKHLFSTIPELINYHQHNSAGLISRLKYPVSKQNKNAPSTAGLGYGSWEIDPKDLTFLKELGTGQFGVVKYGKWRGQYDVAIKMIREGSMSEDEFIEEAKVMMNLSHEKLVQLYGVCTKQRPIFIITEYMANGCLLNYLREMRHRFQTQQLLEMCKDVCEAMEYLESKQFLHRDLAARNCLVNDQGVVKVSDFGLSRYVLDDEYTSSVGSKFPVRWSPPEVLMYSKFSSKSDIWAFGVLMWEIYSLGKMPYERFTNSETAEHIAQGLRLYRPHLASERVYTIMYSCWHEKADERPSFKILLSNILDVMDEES
Procedure: (§4) CC-220 is a IKZF1/3 degrader developed by Celgene and used for comparison.
(§5) In contrast, PS-3, whose warhead is further reduced compared with PS-2, loses its ability to function as either a BTK degrader or a potent IKZF1/3 molecular glue. To confirm this observation, BTK degradation induced by PS-1, PS-2, and PS-3 was tested in both a human B lymphocyte cell line Ramos and mouse BALB/c B cell lymphoma line A20, with DD-03-171 from the Gray group as a positive control (FIG. 5).

[3] = Mouse S9 metabolic stability assay; format: in vitro ADME; conditions: co-incubated with mouse liver S9 enzymes, LC-MS; read-out: t1/2 in mouse liver S9
Procedure: To verify the metabolic stability of PS-2, PS-2 was co-incubated with mouse liver S9 enzymes and LC-MS was used to test the remaining amount of PS-2 compound. DD-03-171 was used as a control (FIG. 11).

[4] = tested on: Mino cells; assay: TMT-based quantitative proteomics in Mino cells, degradation specificity over the proteome; format: cell-based; conditions: 200 nM, 4 h, >2,500 proteins
Procedure: as §1, §2, §3

[5] = target: T3, BTK (Homo sapiens, UniProt Q06187); assay: Western blotting for BTK in Mino cells; format: cell-based; parameters: host or cells: Mino; conditions: up to 1000 nM, 24 h, Western blot
T3 sequence (Q06187 whole entry): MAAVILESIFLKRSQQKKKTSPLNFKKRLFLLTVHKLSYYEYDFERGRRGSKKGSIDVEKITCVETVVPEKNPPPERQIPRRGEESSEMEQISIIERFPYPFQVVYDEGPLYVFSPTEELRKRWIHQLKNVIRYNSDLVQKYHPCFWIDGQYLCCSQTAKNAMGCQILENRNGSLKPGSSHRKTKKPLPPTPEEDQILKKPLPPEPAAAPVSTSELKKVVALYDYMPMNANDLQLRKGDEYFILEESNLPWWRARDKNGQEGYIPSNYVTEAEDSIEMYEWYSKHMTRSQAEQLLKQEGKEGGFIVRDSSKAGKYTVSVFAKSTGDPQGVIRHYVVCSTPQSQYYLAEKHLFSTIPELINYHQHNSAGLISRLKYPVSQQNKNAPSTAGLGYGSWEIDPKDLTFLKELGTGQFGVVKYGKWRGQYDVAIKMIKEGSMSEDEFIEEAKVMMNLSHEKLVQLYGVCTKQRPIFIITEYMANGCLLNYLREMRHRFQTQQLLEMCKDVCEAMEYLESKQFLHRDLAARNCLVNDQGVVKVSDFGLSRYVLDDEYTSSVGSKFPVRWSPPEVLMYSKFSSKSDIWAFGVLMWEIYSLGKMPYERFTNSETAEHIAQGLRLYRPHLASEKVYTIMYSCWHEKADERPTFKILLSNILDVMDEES
Procedure: Mino cells were seeded into the wells of six-well plates at the density of 5×10^5 cells per mL in 2 mL of complete RPMI-1640 culture medium. After overnight adaptation, cells were treated with serially diluted compounds (from 1,000-1.6 nM, 5-fold dilution) for 24 hours. After treatment, whole cell lysates for immunoblotting were prepared by pelleting Mino cells at 4° C. and 200×g for 5 minutes. The resulting cell pellets were washed once with ice-cold PBS and lysed in 1×RIPA lysis buffer (Alfa Aesar, Cat. No. J62524) supplemented with protease and phosphatase inhibitor cocktail (Thermo Fisher, Cat. No. 78430). Lysates were centrifuged at 15,000×g for 10 min at 4° C. and protein concentrations were assessed using BCA assay (Pierce, Cat. No. 23225). Same amounts of protein (30 μg) for each sample were loaded onto sodium dodecyl sulfate-polyacrylamide gel, separated by electrophoresis (Bio-Rad) at 120 V for 1.5 h and transferred to PVDF membrane using a Transblot Turbo system (Bio-Rad). After blocking for 1 h at room temperature in 1% BSA-TBST, the membranes were immunoblotted with the specified primary antibodies at the dilution of 1:1000 in TBST (Cell Signaling Technology: anti-BTK Cat. No. 8547, anti-IKZF1 Cat. No. 14859, anti-IKZF3 Cat. No. 15103, anti-β-actin Cat. No. 4570, Proteintech: anti-GSPT1, Cat. No. 10763-1-AP) overnight at 4° C. and the HRP-conjugated secondary antibodies (Cell Signaling, Cat. No. 7074, 1:1000 in TBST) for 1 h at room temperature. Imaging was performed using the ECL Prime chemiluminescent Western blot detection reagents (Kindle Biosciences, Cat. No. R1100) by visualization of the blots with an Imager (Kindle Biosciences, Cat. No. D1001). All Western blots were subsequently processed and quantified with Imager software ImageJ and protein level was normalized to the B-actin loading controls.

[6] = target: T3, BTK; assay: Western blotting for BTK in Ramos cells; format: cell-based; parameters: host or cells: Ramos; conditions: Ramos cells, 40, 200 and 1000 nM, 24 h, Western blot
Procedure: as §4, §5

T1 sequence (P41240 whole entry): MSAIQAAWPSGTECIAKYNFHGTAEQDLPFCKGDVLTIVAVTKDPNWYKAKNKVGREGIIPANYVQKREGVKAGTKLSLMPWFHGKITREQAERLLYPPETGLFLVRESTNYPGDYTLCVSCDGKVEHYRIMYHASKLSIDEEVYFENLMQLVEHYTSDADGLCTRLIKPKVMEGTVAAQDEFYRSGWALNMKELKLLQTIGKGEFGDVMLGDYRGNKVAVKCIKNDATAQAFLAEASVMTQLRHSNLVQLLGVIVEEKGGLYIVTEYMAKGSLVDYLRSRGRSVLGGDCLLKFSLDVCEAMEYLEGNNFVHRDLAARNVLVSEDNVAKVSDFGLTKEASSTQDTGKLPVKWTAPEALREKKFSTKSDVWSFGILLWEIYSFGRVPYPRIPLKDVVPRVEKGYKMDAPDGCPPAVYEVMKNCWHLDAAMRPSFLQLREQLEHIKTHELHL

O=C1CCC(N2C(=O)c3cccc(NCC(=O)N4CCN(c5ccc(Nc6nccc(Oc7ccccc7)n6)cc5)CC4)c3C2=O)C(=O)N1 (stereo not drawn) [PS-2, 2-(2,6-Dioxopiperidin-3-yl)-4-((2-oxo-2-(4-(4-((4-phenoxypyrimidin-2-yl)amino)phenyl)piperazin-1-yl)ethyl)amino)isoindoline-1,3-dione]
CSK protein level change [1]: downregulated
BTK degradation (result in words) [2]: potent BTK degradation
half-life [3]: ~20 min
other proteins downregulated by at least 25% with statistical significance [4]: No other proteins are downregulated
BTK degradation (result in words) [5]: potently induces BTK degradation
BTK degradation (result in words) [6]: potent BTK degradation

From patent US20240383910A1, “SMALL MOLECULE BTK DEGRADERS AND METHODS OF USE THEREOF” (Baylor College of Medicine, priority 2023, published 2024)
